Assay results from PubChem BioAssay AID248 (DTP/NCI, 2004).
Values joined by “and” are separate entries in the source; they are usually repeats but may differ in a detail not shown here. Equal values may be shown once. Inconclusive results and toxic doses are left out. No stated cut-off is given here; in the data, active means T/C of 150% or more; inactive means T/C below 125%.

Test system: L1210 leukemia ip in BDF1 mice, survival T/C
Assay: NCI In Vivo Anticancer Drug Screen. Data for tumor model L1210 Leukemia (intraperitoneal) in B6D2F1 (BDF1) mice
Conditions: endpoint: mean survival time, higher = longer survival
Summary of the method: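 Read-out is survival time, reported as the treated-group measurement over the vehicle-control measurement.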

[1] = dose: 100.0 mg/kg/injection, schedule: Q01DX001 (ip), vehicle: other
[2] = dose: 200.0 mg/kg/injection, schedule: Q01DX001 (ip), vehicle: other
[3] = dose: 400.0 mg/kg/injection, schedule: Q01DX001 (ip), vehicle: other
[4] = dose: 100.0 mg/kg/injection, schedule: Q01DX001 (ip), vehicle: saline
[5] = dose: 200.0 mg/kg/injection, schedule: Q01DX001 (ip), vehicle: saline
[6] = dose: 400.0 mg/kg/injection, schedule: Q01DX001 (ip), vehicle: saline
[7] = dose: 75.0 mg/kg/injection, schedule: Q01DX001 (ip), vehicle: saline
[8] = dose: 100.0 mg/kg/injection, schedule: Q01DX009 (ip), vehicle: saline
[9] = dose: 50.0 mg/kg/injection, schedule: Q01DX009 (ip), vehicle: saline
[10] = dose: 100.0 mg/kg/injection, schedule: Q04DX003 (ip), vehicle: saline
[11] = dose: 200.0 mg/kg/injection, schedule: Q04DX003 (ip), vehicle: saline
[12] = dose: 100.0 mg/kg/injection, schedule: Q04DX003 (ip), vehicle: Klucel (hydroxypropylcellulose) (HPC)
[13] = dose: 200.0 mg/kg/injection, schedule: Q04DX003 (ip), vehicle: Klucel (hydroxypropylcellulose) (HPC)
[14] = dose: 400.0 mg/kg/injection, schedule: Q04DX003 (ip), vehicle: Klucel (hydroxypropylcellulose) (HPC)
[15] = dose: 400.0 mg/kg/injection, schedule: Q04DX003 (ip), vehicle: saline

Measured: T/C

CCCNC(=O)Oc1c(C)cccc1C
inactive: dose: 50.0 mg/kg/injection, schedule: Q01DX009 (ip), vehicle: carboxymethylcellulose (CMC) 105 % of control and 107 % of control | [1] 95 % of control | dose: 100.0 mg/kg/injection, schedule: Q01DX009 (ip), vehicle: carboxymethylcellulose (CMC) 96 % of control | dose: 100.0 mg/kg/injection, schedule: Q04DX002 (ip), vehicle: Klucel (hydroxypropylcellulose) (HPC) 92 % of control | dose: 100.0 mg/kg/injection, schedule: Q04DX002 (ip), vehicle: carboxymethylcellulose (CMC) 103 % of control and 104 % of control | dose: 100.0 mg/kg/injection, schedule: Q04DX003 (ip), vehicle: other 103 % of control | [2] 96 % of control | dose: 200.0 mg/kg/injection, schedule: Q01DX009 (ip), vehicle: carboxymethylcellulose (CMC) 103 % of control | dose: 200.0 mg/kg/injection, schedule: Q04DX002 (ip), vehicle: Klucel (hydroxypropylcellulose) (HPC) 103 % of control | dose: 200.0 mg/kg/injection, schedule: Q04DX002 (ip), vehicle: carboxymethylcellulose (CMC) 97 % of control and 88 % of control | dose: 200.0 mg/kg/injection, schedule: Q04DX003 (ip), vehicle: other 104 % of control | [3] 102 % of control | dose: 400.0 mg/kg/injection, schedule: Q04DX003 (ip), vehicle: other 109 % of control

C[P+](Cc1ccccc1)(c1ccccc1)c1ccccc1
inactive: dose: 1.25 mg/kg/injection, schedule: Q01DX001 (ip), vehicle: other 101 % of control | dose: 2.5 mg/kg/injection, schedule: Q01DX001 (ip), vehicle: other 94 % of control | dose: 5.0 mg/kg/injection, schedule: Q01DX001 (ip), vehicle: other 98 % of control

CC(=O)C(c1ccc(N(C)C)cc1)c1ccc(N(C)C)cc1
inactive: dose: 50.0 mg/kg/injection, schedule: Q01DX001 (ip), vehicle: saline 101 % of control | [4] 101 % of control | [5] 101 % of control | [6] 101 % of control

C#CCOCCC(C(=O)O)C(=O)O
inactive: dose: 100.0 mg/kg/injection, schedule: Q01DX009 (ip), vehicle: acetone 90 % of control | dose: 100.0 mg/kg/injection, schedule: Q04DX003 (ip), vehicle: acetone 101 % of control | dose: 200.0 mg/kg/injection, schedule: Q01DX009 (ip), vehicle: acetone 97 % of control | dose: 200.0 mg/kg/injection, schedule: Q04DX003 (ip), vehicle: acetone 101 % of control | dose: 400.0 mg/kg/injection, schedule: Q04DX003 (ip), vehicle: acetone 92 % of control

CCN(CC)CCCC(C)Nc1cc(N)c2ncc(-c3ccc(Cl)cc3)nc2n1 (stereo not given)
inactive: [7] 96 % of control | dose: 150.0 mg/kg/injection, schedule: Q01DX001 (ip), vehicle: saline 102 % of control

CN(N)C(=N)N
inactive: [8] 102 % of control | dose: 200.0 mg/kg/injection, schedule: Q01DX009 (ip), vehicle: saline 101 % of control | dose: 400.0 mg/kg/injection, schedule: Q01DX009 (ip), vehicle: saline 96 % of control

CCCCN(CCCC)CC(O)c1cc(-c2cccc(I)c2)nc2c(Cl)cc(Cl)cc12 (stereo not given)
inactive: dose: 100.0 mg/kg/injection, schedule: Q04DX003 (ip), vehicle: saline with Tween-80 90 % of control | dose: 200.0 mg/kg/injection, schedule: Q04DX003 (ip), vehicle: saline with Tween-80 86 % of control | dose: 400.0 mg/kg/injection, schedule: Q04DX003 (ip), vehicle: saline with Tween-80 98 % of control

CCCNCCN
inactive: [9] 98 % of control | [8] 102 % of control | [10] 97 % of control | [11] 99 % of control

O=C(O)C(Br)C(Br)C(=O)Nc1ccc(Cl)c(Cl)c1 (stereo not given)
inactive: dose: 100.0 mg/kg/injection, schedule: Q01DX009 (ip), vehicle: saline with Tween-80 101 % of control | dose: 200.0 mg/kg/injection, schedule: Q01DX009 (ip), vehicle: saline with Tween-80 104 % of control | dose: 400.0 mg/kg/injection, schedule: Q01DX009 (ip), vehicle: saline with Tween-80 93 % of control

COc1ccc(/C=C(/C)C(=O)c2ccccc2)cc1
inactive: [12] 98 % of control | [13] 88 % of control | [14] 103 % of control

S=c1nc[nH]c2[nH]ncc12
inactive: dose: 100.0 mg/kg/injection, schedule: Q01DX001 (ip), vehicle: carboxymethylcellulose (CMC) 108 % of control | dose: 200.0 mg/kg/injection, schedule: Q01DX001 (ip), vehicle: carboxymethylcellulose (CMC) 93 % of control | dose: 400.0 mg/kg/injection, schedule: Q01DX001 (ip), vehicle: carboxymethylcellulose (CMC) 93 % of control

O=Cc1cc([N+](=O)[O-])ccc1O
inactive: [1] 101 % of control | [2] 97 % of control | [3] 103 % of control

C=CC(C)C1CCC2(C)C3=C(C(=O)CC12C)C1(C)C/C(=N/O)C(O)C(C)(C)C1=C(O)C3=O (stereo not given)
inactive: [10] 98 % of control | [11] 95 % of control | [15] 98 % of control

Cc1cc(C)c[n+](Cc2ccccc2Cl)c1
inactive: dose: 12.5 mg/kg/injection, schedule: Q01DX001 (ip), vehicle: saline 102 % of control | dose: 25.0 mg/kg/injection, schedule: Q01DX001 (ip), vehicle: saline 96 % of control

CCCCCCCCCN(CCCC)CCCC
inactive: dose: 25.0 mg/kg/injection, schedule: Q01DX001 (ip), vehicle: saline with Tween-80 95 % of control | dose: 50.0 mg/kg/injection, schedule: Q01DX001 (ip), vehicle: saline with Tween-80 88 % of control | dose: 100.0 mg/kg/injection, schedule: Q01DX001 (ip), vehicle: saline with Tween-80 102 % of control

c1ccc2c3c(ccc2c1)CCC/C3=N\N=C1/CCCc2ccc3ccccc3c21
inactive: [12] 90 % of control | [13] 98 % of control | [14] 92 % of control

CCOC1CC2c3ccccc3C1c1cccc[n+]12 (stereo not given)
inactive: dose: 12.5 mg/kg/injection, schedule: Q01DX009 (ip), vehicle: saline 100 % of control | dose: 12.5 mg/kg/injection, schedule: Q04DX003 (ip), vehicle: saline 100 % of control and 94 % of control | dose: 25.0 mg/kg/injection, schedule: Q01DX009 (ip), vehicle: saline 98 % of control | dose: 25.0 mg/kg/injection, schedule: Q04DX003 (ip), vehicle: saline 89 % of control and 101 % of control | [9] 94 % of control and 96 % of control | dose: 50.0 mg/kg/injection, schedule: Q04DX003 (ip), vehicle: saline 97 % of control and 101 % of control | dose: 75.0 mg/kg/injection, schedule: Q01DX009 (ip), vehicle: saline 88 % of control | [10] 98 % of control | [11] 107 % of control | [15] 86 % of control

CCSP(N)(=O)c1ccccc1 (stereo not given)
inactive: [7] 101 % of control

O=P(c1ccccc1)(c1ccccc1)N1CCCCC1
inactive: [12] 101 % of control | [13] 96 % of control | [14] 93 % of control

O=[N+]([O-])c1cccc(OCCOc2cccc([N+](=O)[O-])c2)c1
inactive: [4] 97 % of control | [5] 96 % of control | [6] 103 % of control

CC(C)(C)C(=O)CC(c1ccccc1)c1ccccc1
inactive: dose: 50.0 mg/kg/injection, schedule: Q01DX001 (ip), vehicle: other 102 % of control | [1] 98 % of control | [2] 98 % of control | [3] 98 % of control

COc1ccccc1C(=Nc1ccccc1)N(O)c1ccccc1
inactive: dose: 2.5 mg/kg/injection, schedule: Q01DX009 (ip), vehicle: saline with Tween-80 93 % of control | dose: 5.0 mg/kg/injection, schedule: Q01DX009 (ip), vehicle: saline with Tween-80 103 % of control

NC(=S)NNC(N)=S
inactive: dose: 50.0 mg/kg/injection, schedule: Q01DX001 (ip), vehicle: Klucel (hydroxypropylcellulose) (HPC) 90 % of control | dose: 100.0 mg/kg/injection, schedule: Q01DX001 (ip), vehicle: Klucel (hydroxypropylcellulose) (HPC) 97 % of control | dose: 200.0 mg/kg/injection, schedule: Q01DX001 (ip), vehicle: Klucel (hydroxypropylcellulose) (HPC) 100 % of control

O=C(NNCc1ccccc1)c1ccccn1
inactive: dose: 12.5 mg/kg/injection, schedule: Q01DX009 (ip), vehicle: Klucel (hydroxypropylcellulose) (HPC) 102 % of control | dose: 25.0 mg/kg/injection, schedule: Q01DX009 (ip), vehicle: Klucel (hydroxypropylcellulose) (HPC) 94 % of control | dose: 50.0 mg/kg/injection, schedule: Q01DX009 (ip), vehicle: Klucel (hydroxypropylcellulose) (HPC) 97 % of control | dose: 100.0 mg/kg/injection, schedule: Q01DX009 (ip), vehicle: Klucel (hydroxypropylcellulose) (HPC) 94 % of control
